According to publication PMC9743128, “Phenotype-based screening rediscovered benzopyran-embedded microtubule inhibitors as anti-neuroinflammatory agents by modulating the tubulin–p65 interaction” (Experimental & Molecular Medicine, 2022):
Like-named read-outs stand apart in the source and are kept apart here.

What was measured:
[1] = tested on: BV-2 cells; assay: Cell viability assay (EZ-Cytox); conditions: 10 μM
Protocol: (§1) A total of 40,000 cells were seeded on a 96-well plate and incubated for 18 h. After 6-, 12- and 24-h compound treatment, 10 μL of EZ-Cytox solution (Dogen; EZ-BULK150) was added to the 96-well plate. After 30 min, the absorbance at 455 nm was measured using a microplate reader (BioTek; Synergy).
(§2) (n=6). Data are presented as the mean ± SD.

[2] = tested on: LPS-mediated NO release in BV-2 microglial cells; assay: Griess assay: cellular NO release after LPS treatment; format: cell-based, murine; conditions: for IC50: 100 ng/mL LPS, 24 h
Protocol: Cellular secretion of nitric oxide (NO) was quantified with the Griess assay. BV-2 cells were seeded on a clear flat bottom TC-treated 96-well plate (Corning; #3598) and sealed with breathable sealing tape (Axygen; BF-400-S). After 18 h, BV-2 cells were treated with compounds in the absence or presence of 100 ng/mL LPS (Sigma; L4391). After 24 h, 50 μL of the cell culture media was mixed with the same volume of Griess reagent {0.1% naphthylethylenediamine dihydrochloride (Sigma; #222488) and 1% sulfanilamide (Sigma; S9251) in 4% phosphoric acid (Daejung; #6532-4405)}. Absorbance at 550 nm was measured using a microplate reader (BioTek; Synergy). Sodium nitrite (Alfa Aesar; A18668) was used for standard curve generation.
Microglia are tissue-resident macrophages involved in CNS immunosurveillance[3],[39]. Microglial activation induces proinflammatory cytokine tumor necrosis factor α (TNF-α) expression, resulting in neural toxicity[5],[6]. Therefore, the inhibition of microglial activation is critical for regulating neuroinflammation. To discover anti-neuroinflammatory NCEs, we monitored the cellular release of nitric oxide (NO) in response to lipopolysaccharide (LPS) treatment as a mimic of pathogenic activation of innate immune systems upon compound treatment in BV-2 cells using the Griess assay.

[3] = molecular target: T1, tubulin (Homo sapiens, UniProt P07437+P68363); assay: Cellular thermal shift assay (CETSA); format: cell-based
T1 construct: endogenous in cells

[4] = Cell viability assay (EZ-Cytox); conditions: mouse, BV-2 microglial cells
Protocol: as §1, §2

[5] = tested on: p65 nuclear translocation in J774A.1 and RAW264.7 cells; assay: p65 nuclear translocation by immunofluorescence staining; format: cell-based, murine; conditions: 10 μM for 1 h, then LPS; LPS alone 80%, basal 40%
Protocol: To monitor p65 translocation, J774A.1 cells were treated with compounds for 1 h, followed by LPS (100 ng/ml) treatment for 30 min. The cells were fixed with 4% paraformaldehyde (Sigma; #158127) in PBS (w/v) for 30 min at room temperature. After washing with 1× PBS (Welgene; ML008-02) three times, the fixed cells were permeabilized with PBS containing 0.1% Triton X-100 for 10 min. The cells were washed with 1× PBS three times and then blocked with 4% bovine serum albumin (MP Biomedicals; #0216006980) in PBS (w/v) for 1 h. The cells were incubated with mouse anti-p65 antibody (Santa Cruz; sc-8008, 1:200 diluted in 1% BSA–PBS) at 4 °C overnight and washed with PBS three times. FITC-labeled goat anti-mouse IgG antibody (Abcam; ab6785, 1:200 diluted in 1% BSA–PBS) was added to the sample and incubated for 1 h at room temperature. The remaining antibodies were finally washed three times with PBS. Nuclei were stained with Hoechst 33342 (Thermo; #62249). The cellular p65 proteins were imaged by fluorescence microscopy (GE Healthcare; Delta Vision) and quantified by the line profiling method.
During activation of the NF-κB signaling pathway, IκB is phosphorylated and degraded by proteasomes. The released p65 from IκB is translocated to the nucleus, inducing the transcription of target genes for inflammatory responses. Therefore, we monitored the translocation of p65 upon SB26019 treatment in J774A.1 and RAW264.7 murine macrophage cells stained with fluorescently labeled antibodies. […]

[6] = molecular target: T2, tubulin (Sus scrofa, UniProt P02550+P02554); assay: Tubulin polymerization assay; format: biochemical; conditions: 1 μM compound
T2 construct: purchased Cytoskeleton BK006P
Protocol: The tubulin polymerization inhibition efficacy of the compounds was measured by a tubulin polymerization assay kit (Cytoskeleton; BK006P) according to the manufacturer’s manual. Absorbance at 340 nm was measured to observe the formation of tubulin polymers using a microplate reader (Biotek; Synergy).
Supplementary Fig. 4. Tubulin polymerization inhibition by compounds 1–13 (1 μM). In the presence or absence of compounds, tubulin was incubated to polymerize at room temperature. Absorbance at 340 nm was measured in a time-dependent manner for monitoring the rate of tubulin polymerization.
Supplementary Table 2. Tubulin polymerization inhibition of the focused library. Tubulin was incubated with each compound (1 μM) and the tubulin polymerization inhibition was monitored. Vmax was calculated from tubulin polymer generation curve data of Supplementary Fig. 3.

[7] = tested on: TNF-α secretion in BV-2 cells; assay: TNF-α ELISA of culture medium after LPS; format: cell-based, murine; conditions: 10 μM
Protocol: BV-2 and RAW264.7 cells were treated with compounds in the absence or presence of LPS (100 ng/ml). After 24 h, TNF-α levels in the culture medium were measured using a TNF-α ELISA kit (R&D Systems; DY410) according to the manufacturer’s protocol. Briefly, capture antibodies were coated on 96-well Maxisorp Nunc-Immuno plates (Thermo; #439454) for 1 h and washed with PBS containing 0.05% Tween-20 (PBST) three times. The plates were blocked with 1% BSA-PBS for 1 h and washed with PBST three times. Culture medium was added to the 96-well plate for 1 h and washed with PBST three times. Biotinylated detection antibody was added to the 96-well plate for 1 h and washed with PBST three times. Streptavidin–horseradish peroxidase (HRP) was added to the plate for 20 min and washed with PBST three times. After 20 min of incubation with TMB substrate (Thermo; #002023), TMB oxidation was stopped by adding 2 N H2SO4. The absorbance at 450 nm, 540 nm, and 570 nm was measured using a microplate reader (BioTek; Synergy). The following formula was used to calculate the net signal: OD450nm–(OD540nm + OD570nm)/2.
Fig. 2 SB26019 has anti-inflammatory activity via the accumulation of tubulin monomers. SB26019 (10 μM for 6 h) regulated the mRNA levels (a) and protein levels (b) of downstream genes of NF-κB in BV-2 murine microglial cells more efficiently than the other known tubulin modulators (n = 3). c Both tubulin modulators (10 μM for 6 h) and transient Flag-tagged α-tubulin overexpression increased the total amount of tubulin monomers. d Quantification of the amount of tubulin polymer vs. monomer in (c). Tubulin modulators (10 μM for 6 h) and transient Flag-tagged α-tubulin overexpression proportionally regulated the NF-κB signaling pathway at the mRNA (e) and protein levels f in RAW264.7 murine macrophage cells (n = 3). Data are presented as the mean ± SD (ns, not significant, p > 0.05; *p < 0.05; **p < 0.01; ***p < 0.001).

[8] = in vitro; conditions: mouse
Protocol: as §1, §2

[9] = Mus musculus, BV-2 cells, LPS, read-out: % NO inh. at 10 μM

T2 sequence (P02554 whole entry): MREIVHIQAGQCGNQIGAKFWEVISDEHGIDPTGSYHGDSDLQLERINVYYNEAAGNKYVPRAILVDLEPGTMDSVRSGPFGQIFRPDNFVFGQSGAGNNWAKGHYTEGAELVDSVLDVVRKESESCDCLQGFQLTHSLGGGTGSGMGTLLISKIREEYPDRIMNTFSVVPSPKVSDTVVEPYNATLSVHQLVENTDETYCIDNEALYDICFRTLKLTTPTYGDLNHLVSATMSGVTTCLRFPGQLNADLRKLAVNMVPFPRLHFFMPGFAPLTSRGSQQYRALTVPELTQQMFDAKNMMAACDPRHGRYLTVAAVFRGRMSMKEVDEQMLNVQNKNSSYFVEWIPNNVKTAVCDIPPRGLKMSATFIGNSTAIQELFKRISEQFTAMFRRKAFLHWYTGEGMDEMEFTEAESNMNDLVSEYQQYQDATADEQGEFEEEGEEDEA
T2 sequence (P02550 whole entry): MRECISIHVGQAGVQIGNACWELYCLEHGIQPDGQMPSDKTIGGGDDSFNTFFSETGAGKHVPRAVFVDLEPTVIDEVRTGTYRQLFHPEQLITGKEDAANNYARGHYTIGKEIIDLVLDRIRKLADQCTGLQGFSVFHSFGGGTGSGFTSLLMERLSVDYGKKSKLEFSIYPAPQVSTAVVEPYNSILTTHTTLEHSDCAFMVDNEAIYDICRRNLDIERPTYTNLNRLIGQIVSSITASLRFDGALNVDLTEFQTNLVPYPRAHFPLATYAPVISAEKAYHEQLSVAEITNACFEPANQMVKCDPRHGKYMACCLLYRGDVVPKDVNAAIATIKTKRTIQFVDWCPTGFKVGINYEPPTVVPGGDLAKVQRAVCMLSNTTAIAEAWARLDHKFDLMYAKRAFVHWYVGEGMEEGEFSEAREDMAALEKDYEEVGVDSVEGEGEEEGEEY
T1 sequence (P07437 whole entry): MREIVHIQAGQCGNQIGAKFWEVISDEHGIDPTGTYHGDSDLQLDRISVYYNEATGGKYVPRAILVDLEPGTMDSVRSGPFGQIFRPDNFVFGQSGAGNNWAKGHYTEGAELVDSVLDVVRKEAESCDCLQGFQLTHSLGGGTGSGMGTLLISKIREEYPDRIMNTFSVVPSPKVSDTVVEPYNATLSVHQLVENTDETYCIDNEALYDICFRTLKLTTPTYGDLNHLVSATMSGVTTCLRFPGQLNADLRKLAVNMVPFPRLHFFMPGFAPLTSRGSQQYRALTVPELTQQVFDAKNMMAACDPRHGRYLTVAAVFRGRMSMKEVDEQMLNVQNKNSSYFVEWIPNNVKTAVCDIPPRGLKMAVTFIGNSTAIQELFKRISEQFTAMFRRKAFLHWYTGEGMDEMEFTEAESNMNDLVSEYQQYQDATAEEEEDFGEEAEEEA
T1 sequence (P68363 whole entry): as the sequence (P02550 whole entry) above, with S136L, G232S, A265I, T340S, E358Q counted along it

For `COc1ccc2c(c1O)OC(C)(C)C=C2c1cccc2c1sc1ccccc12` [Compound 9], the “% Viab. at 10 μM” value [1] was 103.6%, the “% NO inh. at 10 μM” value ([2]; BV-2 cells, LPS) was 90.0% and the IC50 ([2]; BV-2 cells) was 1 µM.

For `COc1ccc2c(c1O)OC(C)(C)C=C2c1ccc(Cl)cc1C` [Compound 1], the “Thermal shift of tubulin in CETSA” value [3] was “slight thermal sensitization”, the viability at 10 µM [4] was 102% and the inhibition at 10 µM [2, 9] was 69.4%. For the same molecule, the inhibition at 10 µM ([2]; Mus musculus, BV-2 microglial cells, read-out: LPS-mediated NO release inhibited down to) was 70% and the IC50 ([2]; Mus musculus, BV-2 cells) was 5.22 µM.

For `COc1ccc2c(c1O)OC(C)(C)C=C2c1cccc(-c2ccccc2)c1` [Compound 11], the “% Viab. at 10 μM” value [1] was 106.1%, the “% NO inh. at 10 μM” value ([2]; BV-2 cells, LPS) was 61.6% and the IC50 ([2]; BV-2 cells) was 6.71 µM.

For `COC(=O)Nc1nc2ccc(C(=O)c3cccs3)cc2[nH]1` [Nocodazole, reference compound], the “p65 nuclear translocation in the presence of LPS” value [5] was less than 60%, the “Vmax of microtubule polymerization compared to DMSO control” value [6] was “reduced Vmax” and the viability at 10 µM [4] was 93.8%. The “TNF-α levels compared to that of the DMSO control” value [7] was less than 50%, the inhibition at 10 µM [2, 9] was 54.9% and the IC50 ([2]; Mus musculus, BV-2 cells) was 13.4 µM.

With `COc1ccc2c(c1O)OC(C)(C)C=C2c1ccccc1C` [Compound 4] the “% Viab. at 10 μM” value [1] was 106.1%, the “% NO inh. at 10 μM” value ([2]; BV-2 cells, LPS) was 73.3% and the IC50 ([2]; BV-2 cells) was 7.19 µM.

For `COc1ccc2c(c1O)OC(C)(C)C=C2c1cccc2cccnc12` [Compound 7], the “% Viab. at 10 μM” value [1] was 101.5%, the “% NO inh. at 10 μM” value ([2]; BV-2 cells, LPS) was 98.0% and the IC50 ([2]; BV-2 cells) was 5.01 µM.

With `COc1ccc2c(c1O)OC(C)(C)C=C2c1cc(C)ccc1C` [Compound 5] the “% Viab. at 10 μM” value [1] was 99.7%, the “% NO inh. at 10 μM” value ([2]; BV-2 cells, LPS) was 46.9% and the IC50 ([2]; BV-2 cells) was 9.89 µM.

In the case of `COc1ccc2c(c1O)OC(C)(C)C=C2c1ccc(F)cc1` [Compound 3], the “% Viab. at 10 μM” value [1] is reported as 88.0%, the “% NO inh. at 10 μM” value ([2]; BV-2 cells, LPS) is reported as 9.9% and the IC50 ([2]; BV-2 cells) is reported as 22.3 µM.

In the case of `COc1ccc2c(c1O)OC(C)(C)C=C2c1cccc2c1Sc1ccccc1S2` [Compound 10], the “% Viab. at 10 μM” value [1] is reported as 102.1%, the “% NO inh. at 10 μM” value ([2]; BV-2 cells, LPS) is reported as 36.8% and the IC50 ([2]; BV-2 cells) is reported as 13.1 µM.

In the case of `COc1cc2c(c(OC)c1OC)-c1ccc(OC)c(=O)cc1[C@@H](NC(C)=O)CC2` [Colchicine], the “p65 nuclear translocation in the presence of LPS” value [5] is reported as less than 60%, the viability at 10 µM [8] is reported as 114% and the “TNF-α levels compared to that of the DMSO control” value [7] is reported as less than 50%. It also gave an inhibition at 10 µM [2, 9] of 51.8%.

With `COc1ccccc1C1=CC(C)(C)Oc2c1ccc(OC)c2O` [Compound 6] the “% Viab. at 10 μM” value [1] was 113.8%, the “% NO inh. at 10 μM” value ([2]; BV-2 cells, LPS) was 87.1% and the IC50 ([2]; BV-2 cells) was 5.09 µM.

With `COc1ccc2c(c1O)OC(C)(C)C=C2c1ccc(F)cc1C` [Compound 2] the “% Viab. at 10 μM” value [1] was 105.3%, the “% NO inh. at 10 μM” value ([2]; BV-2 cells, LPS) was 65.3% and the IC50 ([2]; BV-2 cells) was 5.94 µM.

With `CCOC(=O)CCC1(C)C=C(c2cccc3c2oc2ccccc23)c2ccc(OC)c(O)c2O1` (stereo not drawn) [Compound 13] the “% Viab. at 10 μM” value [1] was 111.4%, the “% NO inh. at 10 μM” value ([2]; BV-2 cells, LPS) was 101.2% and the IC50 ([2]; BV-2 cells) was 1.79 µM.

For `CCOC(=O)CCC1(C)C=C(c2ccc(Cl)cc2C)c2ccc(OC)c(O)c2O1` (stereo not drawn) [Compound 12], the “% Viab. at 10 μM” value [1] was 105.6%, the “% NO inh. at 10 μM” value ([2]; BV-2 cells, LPS) was 72.3% and the IC50 ([2]; BV-2 cells) was 7.45 µM.
